The values that follow come from patent publication US20070066672A1, “Benzimidazole derivatives and use thereof as peptide deformylase inhibitors” (Arpida A/S, priority 2003, published 2007).

The term IC50 denotes the concentration needed to halve the response being measured. The low end stands for inhibition by little substance, the high end for a need for much substance.

Assay [1] concerns the target T1, Peptide Deformylase (PDF) (Escherichia coli, UniProt P0A6K3).
T1 construct: made in house
The assay can be described thus: Bacterial peptide deformylase (PDF) assay, colorimetric cell free, enzyme from E. coli. The assay is classed as biochemical. The source says: (§1) To find inhibitors of Peptide Deformylase (PDF), a colorimetric cell free assay for measuring the enzymatic activity of PDF has been adapted to the microtiter plate format (96 wells). The assay comprises three components, purified PDF, f-Met-Ala as substrate and TNBS as the detecting agent of primary amino groups. The resulting TNP_NH-Met-Ala sulfite complex can be detected at 420 nm. PDF enzymes, containing Fe^2+ as the native metal, are purified and are stabilized by the addition of tris(2-carboxyethyl)phosphine (TCEP).
(§2) The IC50 value of a compound of the invention as a bacterial PDF inhibitor was determined using the following assay.
(§3) Assay buffer 0.1 M MOPS pH was adjusted to 7.2 with NaOH, containing 0.25 M NaCl, 100 μg/mL catalase and 1 mg/mL BSA.
(§4) E. coli enzyme (2.5 mg/ml) 10 μl+290 μl Assay buffer, 1 μl per ml enzyme mix. S. aureus (15 mg/ml) 10 μl+990 μl Assay buffer, 0.3 μl per ml enzyme mix.
(§5) Substrate mix: 10 mM f-Met-Ala was made up from 200 mM f-Met-Ala in methanol with assay buffer.
(§6) TNBS solution: Freshly dilute 1 M TNBS stock solution diluted 1:10 with water.
(§7) Buffer C: 0.5 M borate buffer adjusted to pH 9.5 with NaOH.
(§8) Buffer D: 0.2 ml of freshly prepared 0.5 M Na2SO3 was mixed with 9.8 mL of 0.5M NaH2PO4.
(§9) Inhibitor solution: 2 mM Sodium 4-(hydroxymercurio)benzoate in assay buffer.
(§10) Compound mix: Compound of formula I dissolved in DMSO in a 10 mg/mL stock solution. Further dilutions were made in DMSO in the concentration range between 0.05 to 100 mM.
(§11) The assay was performed in a 96 Microtiter plate containing test compound. To each well containing test compound mix was added 75 microliter of enzyme mix from E. coli followed by the addition of 25 microliter of substrate mix. The resulting mix was incubated for 30 minutes at room temperature with shaking. TNBS solution (50 microliter/well) was added and the resulting mixture was incubated for 15 minutes under shaking. Buffer C was then added (20 microliter/well). After incubating at room temperature for 15 minutes under shaking, buffer D was added (50 microliter/well). The optical […] was then measured at 420 nm, thereby determining the IC50 value.

Assay [2] addresses T2, Peptide Deformylase (PDF) (Staphylococcus aureus, UniProt P68826).
T2 construct: made in house
T2 sequence (P68826 1-183): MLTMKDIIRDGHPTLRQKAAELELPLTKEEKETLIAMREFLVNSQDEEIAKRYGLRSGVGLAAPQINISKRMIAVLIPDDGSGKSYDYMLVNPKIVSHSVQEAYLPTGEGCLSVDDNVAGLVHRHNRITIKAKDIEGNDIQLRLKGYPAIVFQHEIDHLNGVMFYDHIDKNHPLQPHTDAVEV
The assay can be described thus: Bacterial peptide deformylase (PDF) assay, colorimetric cell free, enzyme from S. aureus. The conditions noted are these: f-Met-Ala substrate, TNBS detection at 420 nm. Type of assay: biochemical.
From the text: as §1, §2, §3, §4, §5, §6, §7, §8, §9, §10, §11
The assay was repeated using enzyme mix from S. aureus.

T1 sequence (P0A6K3 whole entry): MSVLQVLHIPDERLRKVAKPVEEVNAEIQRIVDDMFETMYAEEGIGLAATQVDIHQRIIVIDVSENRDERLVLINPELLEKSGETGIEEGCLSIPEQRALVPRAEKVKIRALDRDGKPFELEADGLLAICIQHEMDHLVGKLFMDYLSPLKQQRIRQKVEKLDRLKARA

With `CCC(NC(=O)CCS)c1nc2cc(C(=O)NCC(=O)OC)ccc2n1C1CC1` (stereo not shown) [Example 1, ({1-Cyclopropyl-2-[1-(3-mercapto-propionylamino)-propyl]-1H-benzoimidazole-5-carbonyl}-amino)-acetic acid methyl ester], the IC50 in assay [1] turned out to be 65000 nM; in assay [2] it was 45400 nM. `COC(=O)CNC(=O)c1ccc2c(c1)nc(C(Cc1ccccc1)NC(=O)CCS)n2Cc1ccc(Cl)cc1` (stereo not shown) [Example 2, ({1-(4-Chloro-benzyl)-2-[1-(3-mercapto-propionylamino)-2-phenyl-ethyl]-1H-benzoimidazole-5-carbonyl}-amino)-acetic acid methyl ester]: the IC50 was 22100 nM in assay [1] and 6100 nM in assay [2]. Take `COC(=O)CNC(=O)c1ccc2c(c1)nc(C(CCSC)NC(=O)CCC(=O)O)n2Cc1ccccc1` (stereo not shown) [Example 3, N-{1-[1-Benzyl-5-(methoxycarbonylmethyl-carbamoyl)-1H-benzoimidazol-2-yl]-3-methylsulfanyl-propyl}-succinamic acid]: the IC50 in assay [1] was determined as 80000 nM; in assay [2], 31400 nM.

Turning to `CCCCn1c(C(Cc2ccccc2)NC(=O)CCC(=O)O)nc2cc(C(=O)NCC(=O)OC)ccc21` (stereo not shown) [Example 4, N-{1-[1-Butyl-5-(methoxycarbonylmethyl-carbamoyl)-1H-benzoimidazol-2-yl]-2-phenyl-ethyl}-succinamic acid], the figures for the half-maximal inhibitory concentration (IC50) in assay [1] and in assay [2] were 2800 nM and 1000 nM, respectively.

Take `COC(=O)CNC(=O)c1ccc2c(c1)nc(C(Cc1ccccc1)NC(=O)CCC(=O)O)n2Cc1ccco1` (stereo not shown) [Example 5, N-{1-[1-Furan-2-ylmethyl-5-(methoxycarbonylmethyl-carbamoyl)-1H-benzoimidazol-2-yl]-2-phenyl-ethyl}-succinamic acid]: the IC50 in assay [1] stood at 12900 nM; in assay [2] it was 1600 nM. As to `COC(=O)CNC(=O)c1ccc2c(c1)nc(C(Cc1ccccc1)NC(=O)CCC(=O)O)n2Cc1ccc(Cl)cc1` (stereo not shown) [Example 6, N-{1-[1-(4-Chloro-benzyl)-5-(methoxycarbonylmethyl-carbamoyl)-1H-benzoimidazol-2-yl]-2-phenyl-ethyl}-succinamic acid], the results for the IC50 in assay [1] and in assay [2] were 1300 nM and 93 nM, respectively. The matching figures for `COC(=O)CNC(=O)c1ccc2c(c1)nc(C(CCc1ccccc1)NC(=O)CCC(=O)O)n2C1CC1` (stereo not shown) [Example 7, N-{1-[1-Cyclopropyl-5-(methoxycarbonylmethyl-carbamoyl)-1H-benzoimidazol-2-yl]-3-phenyl-propyl}-succinamic acid]: 2600 nM and 2700 nM. In the same order, the values of `COC(=O)CNC(=O)c1ccc2c(c1)nc(C(CCc1ccccc1)NC(=O)CCC(=O)O)n2CC1CCCCC1` (stereo not shown) [Example 8, N-{1-[1-Cyclohexylmethyl-5-(methoxycarbonylmethyl-carbamoyl)-1H-benzoimidazol-2-yl]-3-phenyl-propyl}-succinamic acid] are 29800 nM and 15100 nM.

Take `COC(=O)CNC(=O)c1ccc2c(c1)nc(C(CCc1ccccc1)NC(=O)CCC(=O)O)n2Cc1ccccc1Cl` (stereo not shown) [Example 9, N-{1-[1-(2-Chloro-benzyl)-5-(methoxycarbonylmethyl-carbamoyl)-1H-benzoimidazol-2-yl]-3-phenyl-propyl}-succinamic acid]: the IC50 in assay [1] came to 27800 nM; in assay [2], 18000 nM. In the same order, the values of `CCC(NC(=O)CCC(=O)O)c1nc2cc(C(=O)NCC(=O)OC)ccc2n1C1CC1` (stereo not shown) [Example 10, N-{1-[1-Cyclopropyl-5-(methoxycarbonylmethyl-carbamoyl)-1H-benzoimidazol-2-yl]-propyl}-succinamic acid] are 5600 nM and 23 nM. `CCC(NC(=O)CCC(=O)O)c1nc2cc(C(=O)NCC(=O)OC)ccc2n1Cc1ccco1` (stereo not shown) [Example 11, N-{1-[1-Furan-2-ylmethyl-5-(methoxycarbonylmethyl-carbamoyl)-1H-benzoimidazol-2-yl]-propyl}-succinamic acid]: the IC50 in assay [1] came to 2800 nM; in assay [2], 1400 nM. In turn, `COC(=O)CNC(=O)c1ccc2c(c1)nc(C(Cc1cccc3ccccc13)NC(=O)CCC(=O)O)n2Cc1ccccc1` (stereo not shown) [Example 30, N-{1-[1-Benzyl-5-(methoxycarbonylmethyl-carbamoyl)-1H-benzoimidazol-2-yl]-2-naphthalen-1-yl-ethyl}-succinamic acid] showed an IC50 in assay [1] of 7000 nM. With `COC(=O)CNC(=O)c1ccc2c(c1)nc(C(CC(C)C)NC(=O)CCC(=O)NO)n2C1CC1` (stereo not shown) [Example 33, ({1-Cyclopropyl-2-[1-(3-hydroxycarbamoyl-propionylamino)-3-methyl-butyl]-1H-benzoimidazole-5-carbonyl}-amino)-acetic acid methyl ester], 496 nM corresponded to half-maximal inhibition in assay [2] (IC50). The compound `CCCCn1c(C(CC(C)C)NC(=O)CCC(=O)NO)nc2cc(C(=O)NCC(=O)OC)ccc21` (stereo not shown) [Example 34, ({1-Butyl-2-[1-(3-hydroxycarbamoyl-propionylamino)-3-methyl-butyl]-1H-benzoimidazole-5-carbonyl}-amino)-acetic acid methyl ester] showed an IC50 in assay [2] of 2270 nM. In assay [2], `COC(=O)CNC(=O)c1ccc2c(c1)nc(C(CC(C)C)NC(=O)CCC(=O)NO)n2Cc1ccccc1` (stereo not shown) [Example 35, ({1-Benzyl-2-[1-(3-hydroxycarbamoyl-propionylamino)-3-methyl-butyl]-1H-benzoimidazole-5-carbonyl}-amino)-acetic acid methyl ester] registered an IC50 of 804 nM. For the compound `COC(=O)CNC(=O)c1ccc2c(c1)nc(C(CCSC)NC(=O)CCC(=O)NO)n2C1CC1` (stereo not shown) [Example 36, ({1-Cyclopropyl-2-[1-(3-hydroxycarbamoyl-propionylamino)-3-methylsulfanyl-propyl]-1H-benzoimidazole-5-carbonyl}-amino)-acetic acid methyl ester], it took 1500 nM to reach half-maximal inhibition in assay [2] (IC50).

`COC(=O)CNC(=O)c1ccc2c(c1)nc(C(CCSC)NC(=O)CCC(=O)NO)n2CC1CCCCC1` (stereo not shown) [Example 37, ({1-Cyclohexylmethyl-2-[1-(3-hydroxycarbamoyl-propionylamino)-3-methylsulfanyl-propyl]-1H-benzoimidazole-5-carbonyl}-amino)-acetic acid methyl ester] showed an IC50 in assay [1] of 317 nM. In turn, `COC(=O)CNC(=O)c1ccc2c(c1)nc(C(Cc1ccccc1)NC(=O)CCC(=O)NO)n2Cc1ccco1` (stereo not shown) [Example 39, ({1-Furan-2-ylmethyl-2-[1-(3-hydroxycarbamoyl-propionylamino)-2-phenyl-ethyl]-1H-benzoimidazole-5-carbonyl}-amino)-acetic acid methyl ester] returned an IC50 in assay [1] of 1500 nM.

In assay [1], `COC(=O)CNC(=O)c1ccc2c(c1)nc(C(Cc1cccc3ccccc13)NC(=O)CCC(=O)NO)n2CCc1cccs1` (stereo not shown) [Example 44, {[2-[1-(3-Hydroxycarbamoyl-propionylamino)-2-naphthalen-1-yl-ethyl]-1-(2-thiophen-2-yl-ethyl)-1H-benzoimidazole-5-carbonyl]-amino}-acetic acid methyl ester] displayed an IC50 of 3100 nM. Compound `CCCCn1c(C(Cc2cccc3ccccc23)NC(=O)CCC(=O)NO)nc2cc(C(=O)NCC(=O)OC)ccc21` (stereo not shown) [Example 45, ({1-Butyl-2-[1-(3-hydroxycarbamoyl-propionylamino)-2-naphthalen-1-yl-ethyl]-1H-benzoimidazole-5-carbonyl}-amino)-acetic acid methyl ester] gave an IC50 in assay [1] of 5800 nM.
